Where two headings read alike, the source gives them in different places.
Assays:
SARS-CoV-2 (COVID-19) = details: read-out: Half-maximal inhibitory concentration (IC50) against SARS-CoV-2; in vitro; preventing viruses' entrance into the cytoplasm; cited from earlier work
[1] = mean ± SD, n = 3; for Stability 4℃, 5-D (%): Table S1
Protocol: The HPLC analyses were performed on an Agilent Technology 1260 infinity system (Agilent Technology Inc., Waldbronn, Germany) equipped with an Agilent ChemStation software Rev. B.04.03-SP2 (105), a binary pump, a degasser, an autosampler, a thermostatted sample reservoir, a thermostatted column compartment, and a UV-detector. A Capcell-pak C18 UG120 column (4.6 mm × 250 mm, 5 μm, Osaka Soda Co. Ltd., Osaka, Japan) was used as an analytical column. The mobile phase was composed of 10 mM NaH2PO4 (pH 1.61–1.63) and 100% ACN (78:22, v/v) with isocratic elution at pH of 2.0–2.1 using a flow rate of 1.0 mL/min. The sample reservoir and column oven were maintained at 4 °C and 25 °C, respectively. The analytes were detected using a UV detector with the wavelength set at 220 nm, and the injection volume was 25 μL.
(§1) The aqueous supernatant (approximately 100 μL) was prepared as the final sample extract after rinsing with 600 μL of chloroform.
(§2) The recovery of the sample preparation method was estimated by dividing the peak area for the pre-spiked sample by the peak area for the post-spiked sample, multiplied by 100. […] Short- and long-term stability was evaluated after storage at 4 °C for 36 h and −70 °C for 24 days. Freeze-thaw stability was assessed with three freeze-thaw cycles at −70 °C. The post-preparation stability was also examined at 4 °C for 24 h.

[2] = cited from earlier work
[3] = Post-preparation stability of teicoplanin and IS mixture (processed plasma extract); format: physicochemical, human; details: mean ± SD, n = 3
Protocol: as §1, §2

## teicoplanin
SARS-CoV-2 (COVID-19)
  IC50: 1.66 µM

## polymyxin B [IS]
[1]; long-term, human plasma, IS 100 mg/L, peak area of polymyxin B2, HPLC-UV 220 nm
  Stability −70 °C, 24-d (%): 112.2 ± 8.74%
[1]; short-term, human plasma, IS 100 mg/L (polymyxin B mixture), peak area of polymyxin B2, HPLC-UV 220 nm
  Stability 4 °C, 36 h (%): 96.19 ± 2.79%
[1]; three freeze-thaw cycles at −70 °C, human plasma, IS 100 mg/L, peak area of polymyxin B2, HPLC-UV
  Stability Freeze-Thaw (%): 111.5 ± 7.36%

## vancomycin
[2]
  Half-life: ~10 h

## teicoplanin A2-2
[3]; Table S1, H, 500.0 mg/L
  Stability Post-preparation, 7-D (%): 102.58 ± 7.60%
[3]; Table S1, L, 7.81 mg/L
  Stability Post-preparation, 7-D (%): 108.56 ± 24.10%
[3]; Table S1, M, 62.5 mg/L
  Stability Post-preparation, 7-D (%): 105.94 ± 2.00%
[1]; H, 500.0 mg/L
  Stability 4℃, 5-D (%): 101.84 ± 1.59%
[1]; L, 7.81 mg/L
  Stability 4℃, 5-D (%): 100.96 ± 11.32%
